Measured values taken from patent US20220160686A1, “MACROCYCLIC AZOLOPYRIDINE DERIVATIVES AS EED AND PRC2 MODULATORS” (Fulcrum Therapeutics, Inc., priority 2019, published 2022).
Like-named read-outs stand apart in the source and are kept apart here.

Experiments:
[1] = target: T1, biotinylated AVI-tagged EED (76-441) (Homo sapiens, UniProt O75530); experiment: EED binding SPR assay; conditions: 1:1 binding model; read-out: KD, equilibrium dissociation constant as measured by surface plasmon resonance (SPR)
T1 construct: GST (N, cleaved yes); made in house; host or cells: E. coli BL21(DE3), co-expressed with pGro7
T1 sequence (O75530 76-441 limits assumed): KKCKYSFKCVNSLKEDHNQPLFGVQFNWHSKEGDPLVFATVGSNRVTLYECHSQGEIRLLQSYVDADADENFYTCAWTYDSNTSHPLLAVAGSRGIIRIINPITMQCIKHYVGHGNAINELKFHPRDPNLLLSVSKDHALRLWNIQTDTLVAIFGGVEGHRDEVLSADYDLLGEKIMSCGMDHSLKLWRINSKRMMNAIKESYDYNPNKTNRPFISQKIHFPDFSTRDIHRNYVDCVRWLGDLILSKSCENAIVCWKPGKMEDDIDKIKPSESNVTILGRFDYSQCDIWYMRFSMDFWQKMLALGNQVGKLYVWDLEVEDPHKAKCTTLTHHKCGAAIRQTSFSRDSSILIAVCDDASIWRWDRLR
Experimental: Biotinylated AVI-tagged EED was produced using standard molecular biology techniques. A pGEX plasmid with a GST-preScission-cleavage-site-AVI-EED(76-441) sequence was placed into E. coli BL21(DE3) cells and co-expressed with pGro7. The E. coli were grown in shaker flasks in LB with ampicillin at 37° C. at 110 rpm to an OD600=0.7. At this time the temperature was lowered to 15° C. and IPTG was added to 0.3 mM. The cells were allowed to express overnight. Cells were then harvested.
For purification, the E. coli cell pellet was lysed into a buffer of 50 mM Tris pH 8.0, 500 mM NaCl, 5% glycerol and 5 mM DTT. The lysate was loaded onto a GSTrap FF column from GE Healthcare. After washing, the bound protein was eluted with 50 mM Tris pH 8.0, 500 mM NaCl, 5% glycerol, 5 mM DTT and 15 mM GSH. The collected fractions were combined and incubated with PreScission enzyme overnight at 4° C. The cleaved protein was then passed through a GSTrap FF column in a buffer of 50 mM Tris pH 8.0, 500 mM NaCl, 5% glycerol and 5 mM DTT. The cleaved protein was confirmed through mass spectrometry. The AVI-EED(76-441) was then buffer exchanged into 50 mM Bicine pH 8.3, 10 mM ATP, 10 mM magnesium acetate and 50 μM D-Biotin. 3 mg of BirA enzyme was added to the system and incubated at 4° C. for 2 hours to biotinylate the AVI-EED(76-441). The biotinylated-AVI-EED(76-441) was then buffer exchanged into 20 mM Tris pH 8.0 and 400 mM NaCl and passed through a size exclusion column of Superdex 200 16/60 Increase. The purified monomeric biotinylated-AVI-EED(76-441) was confirmed through SDS-PAGE, LC-MS and analytical size exclusion chromatography.
All surface plasmon resonance (SPR) assays were performed using a GE Biacore S200 utilizing GE Biotin CAPture chips. Capturing of CAP reagents was performed with a flow rate of 2 μL/min for 90 seconds. For protein capturing, a solution of 50 μg/mL of biotinylated AVI-tagged EED (76-441) in 10 mM HEPES pH 7.4, 150 mM NaCl, 0.05% Tween 20 and 2% DMSO (Running Buffer) was flowed over the chip with a flow rate of 5 μL/min for a contact time of 30 seconds. Final readings were 2200-2400 RU. For compounds, 7 concentrations were made with 3-dilutions using the Running Buffer for a total of 300 μL of each concentration in a 96-well microplate. During the binding experiments, a flow rate of […] was used for an association time of 90 seconds followed by a disassociation time of 180 seconds. The compartment temperature was set at 10° C. with the chip at 25° C. During regeneration the flow rate was set to 30 μL/min for 30 seconds. All fittings were done using a 1:1 binding model.

[2] = system: human P-glycoprotein HEK cells (HEK-P-gp); experiment: H3K27me3 immunocytochemistry assay in P-gp expressing HEK293T cells, with or without elacridar; assay type: cell-based; conditions: Homo sapiens, 4 days compound treatment
Experimental: A plasmid encoding the human ABCB1 gene under the control of a CMV promoter was purchased from Origene (Cat #RC216080). The HEK293T cells were purchased from ATCC (Cat #CRL-3216) and were cultured for expansion in the recommended conditions. The HEK293T cells were transfected with 2 ug of the pCMV-ABCB1 plasmid using Lipofectamine 3000 following recommendations from the manufacturer (ThermoFisher Scientific, Cat #L3000008). After 24 h, cells were dissociated, and 5000 cells were seeded on a 10 cm tissue culture dish. On the next day, fresh media containing 5 nM Vinblastine (Sigma, Cat #V1377) was added, and media containing compound was replenished every 72 h. After surviving cells reached confluency, cells were passaged, and lines were maintained in the presence of 2.5 nM Vinblastine until further characterization.
P-gp expressing HEK293T, HUDEP2, and Human Mobilized Peripheral Blood Primary CD34+ cells were cultured for use in an H3K27me3 immunocytochemistry assay. HUDEP2 and Human Mobilized Peripheral Blood Primary CD34+ cells were cultured for use in an HbF immunocytochemistry assay. P-gp expressing HEK293T cells were maintained and passaged every 3-4 days by plating 300,000 viable cells in a T-25 culture flask containing 6 mLs of 293 Passaging Media comprised of DMEM (ThermoFisher #10566016), 10% fetal bovine serum (ThermoFisher #A3160502), 1% penicillin-streptomycin (ThermoFisher #15140122), and 2.5 nM Vinblastine (Sigma #V1377). To evaluate the inhibitory effect of the compounds of the present disclosure and their brain penetrant properties via P-gp mediated efflux, the H3K27me3 immunocytochemistry assay was conducted in the presence or absence of 250 nM of the P-gp inhibitor, elacridar. Poor brain penetrant compounds were expected to show higher potencies in the presence of Elacridar. However, brain penetrant compounds would show similar potencies irrespective of whether Elacridar is present or not. In these experiments plates without elacridar were seeded with P-gp expressing HEK293T cells at 1000 viable cells per well in a poly-d-lysine coated 384-well plate (Corning Cat #356697) in 45 μL of 293 Assay Media comprised of DMEM (ThermoFisher #10566016), 10% fetal bovine serum (ThermoFisher #A3160502), 1% penicillin-streptomycin (ThermoFisher #15140122). A replicate set of plates were seeded under the same conditions with 45 μL of 293 Assay Media supplemented with 250 nM of Elacridar to inhibit P-gp activity. Compounds were serially diluted at 10× concentration in 293 Media, and 5 μL transferred to their respective wells on both sets of plates for a total volume of 50 μL per well. The compound treated HEK293T cells were allowed to incubate for 4 days at 37° C., 85% relative humidity, and 5% CO2 before proceeding to ICC Fix and Stain protocol.
The Fix and Stain Protocol was the same for HEK293T, HUDEP2, and Primary CD34+ cell assays except the specific primary and secondary antibodies used for detection. Following 4 days of compound treatment, the respective plates were washed once with 25 μL of PBS (ThermoFisher #10010023) and fixed with 25 μL of 4% paraformaldehyde (ThermoFisher #28908) for 10 minutes at room temperature. The plates were then washed three times with 25 μL of PBS. Subsequent to that, the cells were permeabilized and blocked for 1 hour at room temperature in 25 μL of Perm/Block buffer comprised of IX PBS, 1% bovine serum albumin (ThermoFisher #A3294), 10% fetal bovine serum (ThermoFisher #A3160502), 0.3M glycine (Sigma #G7126), and 0.1% tween-20 (Sigma #P7949). This was followed by additional washing (three times) of the plates with 25 μL of 0.1% tween in PBS.
For the H3K27me3 assay, the cells were incubated overnight at 4° C. with 25 μL of H3K27me3 Primary Antibody (Cell Signaling #9733) diluted 1:200 in 0.1% tween-20 in PBS. […]

[3] = HEK293, 96 h, without elacridar, read-out: IC50, inhibitory activity on human P-glycoprotein HEK cells (HEK-P-gp)
[4] = HEK293, with 250 nM elacridar, read-out: IC50, inhibitory activity on human P-glycoprotein HEK cells (HEK-P-gp) pretreated with elacridar

SMILES	Kd [1] [nM]	IC50 [2, 3] [nM]	IC50 [2, 4] [nM]
Cc1ccnc(-c2cc3c(n4cnnc24)NCc2c(F)ccc4c2C(CO4)CO3)c1 (stereo in doubt) [Compound 149, (S)-12-fluoro-4-(4-methylpyridin-2-yl)-7a,8,13,14-tetrahydro-7H-[1,2,4]triazolo[4',3':1,6]pyrido]3,2-b]benzofuro[4,3-fg][1,4]oxazonine]	10 to 50	> 500	> 500
Cc1ccc(C(F)F)c(-c2cc3c(n4cnnc24)NCc2c(F)ccc4c2[C@@H](CO4)CO3)n1 [Compound 144]	2.5 to 5	100 to 500	100 to 500
COc1cccnc1-c1cc2c(n3cnnc13)NCc1c(F)ccc3c1[C@@H](CO3)CO2 [Compound 159, (S)-12-fluoro-4-(3-methoxypyridin-2-yl)-7a,8,13,14-tetrahydro-7H-[1,2,4]triazolo[4′,3′:1,6]pyrido[3,2-b]benzofuro[4,3-fg][1,4]oxazonine]	10 to 50	> 500	> 500
Cc1cc(-c2cc3c(n4cnnc24)NCc2c(F)ccc4c2[C@@H](CO4)CO3)ncn1 [Compound 161, (S)-12-fluoro-4-(6-methylpyrimidin-4-yl)-7a,8,13,14-tetrahydro-7H-[1,2,4]triazolo[4′,3′:1,6]pyrido[3,2-b]benzofuro[4,3-fg][1,4]oxazonine]	5 to 10	> 500	> 500
Cc1cncnc1-c1cc2c(n3cnnc13)NCc1c(F)ccc3c1[C@@H](CO3)CO2 [Compound 162, (S)-12-fluoro-4-(5-methylpyrimidin-4-yl)-7a,8,13,14-tetrahydro-7H-[1,2,4]triazolo[4′,3′:1,6]pyrido[3,2-b]benzofuro[4,3-fg][1,4]oxazonine]	2.5 to 5	25 to 50	50 to 100
Cc1cc(Cl)cnc1-c1cc2c(n3cnnc13)NCc1c(F)ccc3c1[C@@H](CO3)CO2 [Compound 166, (S)-4-(5-chloro-3-methylpyridin-2-yl)-12-fluoro-7a,8,13,14-tetrahydro-7H-[1,2,4]triazolo[4′,3′:1,6]pyrido[3,2-b]benzofuro[4,3-fg][1,4]oxazonine]	2.5 to 5	> 500	> 500
Cn1nccc1-c1cc2c(n3cc(C(=O)O)nc13)NCc1c(F)ccc3c1[C@@H](CO3)CO2 [Compound 174, (S)-5-fluoro-12-(1-methyl-1H-pyrazol-5-yl)-6,7,15,15a-tetrahydro-1H-benzofuro[4,3-fg]imidazo[r,2′:1,6]pyrido[3,2-b][1,4]oxazonine-10-carboxylic acid]	5 to 10		
Cc1ncccc1-c1cc2c(n3cc(C(=O)O)nc13)NCc1c(F)ccc3c1[C@@H](CO3)CO2 [Compound 177, (S)-5-fluoro-12-(2-methylpyridin-3-yl)-6,7,15,15a-tetrahydro-1H-benzofuro[4,3-fg]imidazo[r,2′:1,6]pyrido[3,2-b][1,4]oxazonine-10-carboxylic acid]	10 to 50	> 500	> 500

Now from value to molecule, other results behind:

Kd [1] [nM]	SMILES	IC50 [2, 3] [nM]	IC50 [2, 4] [nM]
< 2.5	Cc1cn(C)c(-c2cc3c(n4cnnc24)NCc2c(F)ccc4c2C(CO4)CO3)n1 (stereo in doubt) [Compound 135, (S)-4-(1,4-dimethyl-1H-imidazol-2-yl)-12-fluoro-7a,8,13,14-tetrahydro-7H-[1,2,4]triazolo[4',3':1,6]pyrido]3,2-b]benzofuro[4,3-fg][1,4]oxazonine]	50 to 100	50 to 100
< 2.5	Fc1ccc2c3c1CNc1c(cc(-c4ncncc4Cl)c4nncn14)OC[C@@H]3CO2 [Compound 163, (S)-4-(5-chloropyrimidin-4-yl)-12-fluoro-7a,8,13,14-tetrahydro-7H-[1,2,4]triazolo[4′,3′:1,6]pyrido[3,2-b]benzofuro[4,3-fg][1,4]oxazonine]	100 to 500	25 to 50
< 2.5	Cn1ncc(C#N)c1-c1cc2c(n3cnnc13)NCc1c(F)ccc3c1C(CO3)CO2 [Compound 170, (S)-5-(12-fluoro-7a,8,13,14-tetrahydro-7H-[1,2,4]triazolo[4′,3′:1,6]pyrido[3,2-b]benzofuro[4,3-fg][1,4]oxazonin-4-yl)-1-methyl-1H-pyrazole-4-carbonitrile]	100 to 500	100 to 500
< 2.5	Fc1ccc2c3c1CNc1c(cc(-c4cnn5c4CCC5)c4nncn14)OC[C@@H]3CO2 [Compound 171, (S)-4-(5,6-dihydro-4H-pyrrolo[1,2-b]pyrazol-3-yl)-12-fluoro-7a,8,13,14-tetrahydro-7H-[1,2,4]triazolo[4',3':1,6]pyrido[3,2-b]benzofuro [4,3-fg][1,4] oxanzonine]	> 500	> 500
< 2.5	Fc1ccc2c3c1CNc1c(cc(-c4cnc(C5CC5)nc4)c4nncn14)OC[C@@H]3CO2 [Compound 178, (S)-4-(2-cyclopropylpyrimidin-5-yl)-12-fluoro-7a,8,13,14-tetrahydro-7H-[1,2,4]triazolo[4′,3′:1,6]pyrido[3,2-b]benzofuro[4,3-fg][1,4]oxazonine]	100 to 500	50 to 100
